ChEMBL document CHEMBL5506004, “Optimizing drug-like properties of selective butyrylcholinesterase inhibitors for cognitive improvement: Enhancing aqueous solubility by disrupting molecular plane” (Eur J Med Chem, 2024)
In brackets after ≈: the same amount, converted by molar mass. Activity calls are given as the source filed them. The calls are words filed in the database; no cut-off is given here.

Assays:
[1] = target: Cholinesterase (Equus caballus, UniProt P81908); assay: Inhibition of horse serum BChE using BTC iodide as substrate preincubated for 5 mins followed by substrate addition measured after 2 mins by Ellman's method
Cholinesterase (Equus caballus, UniProt P81908), sequence (P81908 whole entry): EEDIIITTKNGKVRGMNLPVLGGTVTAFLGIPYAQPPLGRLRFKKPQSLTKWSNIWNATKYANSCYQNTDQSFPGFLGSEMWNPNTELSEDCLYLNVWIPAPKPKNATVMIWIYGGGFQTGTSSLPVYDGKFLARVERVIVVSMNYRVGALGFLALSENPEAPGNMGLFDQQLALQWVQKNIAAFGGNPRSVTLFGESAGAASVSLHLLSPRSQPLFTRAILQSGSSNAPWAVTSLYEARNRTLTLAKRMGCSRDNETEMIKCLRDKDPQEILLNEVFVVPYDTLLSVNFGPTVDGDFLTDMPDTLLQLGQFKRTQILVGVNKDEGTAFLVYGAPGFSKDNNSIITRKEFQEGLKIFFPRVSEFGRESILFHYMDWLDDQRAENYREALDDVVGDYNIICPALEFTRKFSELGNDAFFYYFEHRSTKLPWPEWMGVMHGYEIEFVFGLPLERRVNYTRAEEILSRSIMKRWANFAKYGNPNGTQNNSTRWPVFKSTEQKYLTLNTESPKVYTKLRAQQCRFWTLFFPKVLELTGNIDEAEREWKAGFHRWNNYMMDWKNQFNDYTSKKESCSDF

[2] = Solubility of compound in FaSSIF incubated for 24 hrs by HPLC analysis; assay type: ADME
[3] = target: Cholinesterase (Homo sapiens, UniProt P06276); assay: Inhibition of human BChE using BTC iodide as substrate preincubated for 5 mins followed by substrate addition measured after 2 mins by Ellman's method
Cholinesterase (Homo sapiens, UniProt P06276), sequence (P06276 whole entry): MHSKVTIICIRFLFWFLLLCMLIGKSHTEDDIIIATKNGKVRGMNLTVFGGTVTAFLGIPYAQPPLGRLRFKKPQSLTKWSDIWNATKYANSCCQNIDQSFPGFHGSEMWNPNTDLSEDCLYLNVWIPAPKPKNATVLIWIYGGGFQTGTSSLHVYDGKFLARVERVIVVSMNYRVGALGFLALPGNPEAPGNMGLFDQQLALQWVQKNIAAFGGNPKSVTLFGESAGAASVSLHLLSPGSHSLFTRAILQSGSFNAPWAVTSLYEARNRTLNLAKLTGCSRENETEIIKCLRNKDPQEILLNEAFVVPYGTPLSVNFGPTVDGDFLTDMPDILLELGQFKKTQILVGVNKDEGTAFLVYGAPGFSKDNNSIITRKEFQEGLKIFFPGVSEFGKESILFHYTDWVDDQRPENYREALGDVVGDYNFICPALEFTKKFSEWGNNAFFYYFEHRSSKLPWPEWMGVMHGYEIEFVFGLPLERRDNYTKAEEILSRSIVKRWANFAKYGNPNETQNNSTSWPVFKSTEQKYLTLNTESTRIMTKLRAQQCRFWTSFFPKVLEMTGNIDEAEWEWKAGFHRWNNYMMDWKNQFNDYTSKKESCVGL

[4] = Permeability of compound at 50 ug/ml incubated for 18 hrs by PAMPA; assay type: ADME; conditions: dose 50 µg/ml, read-out: permeability
[5] = test system: BV-2; assay: Cytotoxicity against mouse BV-2 cells assessed as survival rate incubated for 24 hrs by MTT assay; assay type: functional, cell-based; conditions: BV-2, 24 h
[6] = Acute toxicity in ICR mouse assessed as animal growth at 1 g/kg, IG; conditions: in vivo, po, 1000 mg/kg
[7] = Cytotoxicity against human L02 cells assessed as survival rate at 100 uM incubated for 24 hrs by MTT assay relative to control; assay type: toxicity, cell-based; conditions: read-out: Survival
[8] = test system: SH-SY5Y; assay: Cytotoxicity against human SH-SY5Y cells assessed as survival rate incubated for 24 hrs by MTT assay; assay type: functional, cell-based
[9] = test system: PC-12; assay: Neuroprotective activity in rat PC12 cells assessed as cell viability pretreated for 2 hrs followed by H2O2 addition measured after 24 hrs by MTT assay; assay type: functional, cell-based; conditions: time 26.0 hrs
[10] = test system: PC-12; assay: Cytotoxicity against rat PC12 cells assessed as survival rate at 100 uM incubated for 24 hrs by MTT assay relative to control; assay type: functional; conditions: read-out: Survival
[11] = Metabolic stability in human liver microsomes assessed as compound metabolism at 2 uM measured for 60 mins by LC-MS/MS analysis; assay type: ADME, Microsome; conditions: read-out: Drug metabolism
[12] = test system: HT-22; assay: Cytotoxicity against mouse HT-22 cells assessed as survival rate at 100 uM incubated for 24 hrs by MTT assay relative to control; assay type: functional; conditions: read-out: Survival
[13] = Acute toxicity in ICR mouse assessed as animal death at 1 g/kg, IG; conditions: in vivo, po, 1000 mg/kg
[14] = test system: HT-22; assay: Neuroprotective activity against glutamate-induced excitotoxicity in mouse HT-22 cells assessed as cell viability at 1 to 10 uM pretreated for 1 hr followed by glutamate addition measured after 24 hrs by MTT assay; assay type: functional, cell-based; conditions: dose 1-10 µM, time 25.0 hrs
[15] = Half life in Sprague-Dawley rat at 10 mg/kg, po measured for 1 to 1440 mins by LC-MS/MS analysis; assay type: ADME, organism-based; conditions: in vivo, time 1-1440 min
[16] = AUC (0 to t) in Sprague-Dawley rat at 10 mg/kg, po measured for 1 to 1440 mins by LC-MS/MS analysis; assay type: ADME, organism-based; conditions: in vivo, time 1-1440 min
[17] = Tmax in Sprague-Dawley rat at 10 mg/kg, po measured for 1 to 1440 mins by LC-MS/MS analysis; assay type: ADME, organism-based; conditions: in vivo, time 1-1440 min
[18] = Oral bioavailability in Sprague-Dawley rat at 10 mg/kg measured for 1 to 1440 mins by LC-MS/MS analysis; assay type: ADME, organism-based; conditions: in vivo, time 1-1440 min
[19] = MRT (infinity) in Sprague-Dawley rat at 10 mg/kg, po measured for 1 to 1440 mins by LC-MS/MS analysis; assay type: ADME, organism-based; conditions: in vivo, time 1-1440 min
[20] = Cmax in Sprague-Dawley rat at 10 mg/kg, po measured for 1 to 1440 mins by LC-MS/MS analysis; assay type: ADME, organism-based; conditions: in vivo, po, 10 mg/kg, time 1-1440 min
[21] = AUC (0 to infinity) in Sprague-Dawley rat at 10 mg/kg, po measured for 1 to 1440 mins by LC-MS/MS analysis; assay type: ADME, organism-based; conditions: in vivo, time 1-1440 min

SMILES | IC50 [1] [nM] | solubility at 24 h [2] [µM] | also measured
Nc1nonc1-c1nc2ccccc2n1CC(=O)Nc1cccnc1 | 154 | 373 (≈ 125 µg/mL) | –
Nc1nonc1-c1nc2ccccc2n1CC(=O)Nc1ccc(N2CCCCC2)cc1 | 168 | 86.2 (≈ 36 µg/mL) | –
Nc1nonc1-c1nc2ccccc2n1CC(=O)Nc1cccc(N2CCCCC2)c1 | 4.71 | 74.3 (≈ 31 µg/mL) | IC50 [3]: 21.2 nM
Nc1nonc1-c1nc2ccccc2n1CC(=O)Nc1ccc(C(=O)N2CCOCC2)cc1 | 67 | 467 (≈ 209 µg/mL) | –
CN1CCN(C(=O)c2ccc(NC(=O)Cn3c(-c4nonc4N)nc4ccccc43)cc2)CC1 | 84 | 1020 (≈ 471 µg/mL) | –
CN1CCN(c2cccc(NC(=O)Cn3c(-c4nonc4N)nc4ccccc43)c2)CC1 | 19.4 | 2820 (≈ 1220 µg/mL) | Papp at 18 h, 50 ug/ml [4]: 3.57 ×10⁻⁶ cm/s; IC50 [5]: 17000 nM; Activity [6]: Non-Toxic; viability at 24 h, 100 µM [7]: 102%; IC50 [3]: 121 nM; IC50 [8]: 10300 nM; Activity [9]: Dose-Dependent Effect; viability at 100 µM [10]: 82.6%; metabolised at 1 h, 2 µM [11]: < 15%; viability at 100 µM [12]: 89.5%; Activity [13]: Non-Toxic; Activity [14]: Active
CN1CCN(c2ccc(NC(=O)Cn3c(-c4nonc4N)nc4ccccc43)cc2)CC1 | 92.3 | 1360 (≈ 588 µg/mL) | –
Nc1nonc1-c1nc2ccccc2n1CC(=O)Nc1cccc(CC(=O)N2CCOCC2)c1 | 193 | 728 (≈ 336 µg/mL) | –
Nc1nonc1-c1nc2ccccc2n1CC(=O)Nc1cncc(Br)c1 | 15.4 | 476 (≈ 197 µg/mL) | IC50 [3]: 119 nM
CN1CCN(Cc2ccc(NC(=O)Cn3c(-c4nonc4N)nc4ccccc43)cc2)CC1 | 99.8 | 2660 (≈ 1190 µg/mL) | –
Nc1nonc1-c1nc2ccccc2n1CC(=O)Nc1ccncc1 | 172 | 474 (≈ 159 µg/mL) | –
Nc1nonc1-c1nc2ccccc2n1CC(=O)Nc1cncc(C(F)(F)F)c1 | 94.5 | 660 (≈ 266 µg/mL) | –
Nc1nonc1-c1nc2ccccc2n1CC(=O)Nc1ccccc1N1CCOCC1 | 2470 | 536 (≈ 225 µg/mL) | –
Nc1nonc1-c1nc2ccccc2n1CC(=O)NC1CCCCC1 | 3520 | 232 (≈ 79 µg/mL) | –
Nc1nonc1-c1nc2ccccc2n1CC(=O)Nc1cccc(N2CCOCC2)c1 | 49.5 | 1270 (≈ 534 µg/mL) | –
CN1CCN(C(=O)Cc2ccc(NC(=O)Cn3c(-c4nonc4N)nc4ccccc43)cc2)CC1 | 609 | 1770 (≈ 842 µg/mL) | –
N#Cc1cc(Br)cc(NC(=O)Cn2c(-c3nonc3N)nc3ccccc32)c1 | – | 379 (≈ 166 µg/mL) | half-life [15]: 4.74 h; AUC(0-t) [16]: 3360 ng·h/mL; Tmax [17]: 0.18 h; bioavailability [18]: 23.6%; MRT inf [19]: 7.37 h; Cmax [20]: 975.05 ng/mL; AUC(0-inf) [21]: 3780 ng·h/mL
